Results as given in patent publication US9295714B2, “Apparatus and method for transdermal delivery of parathyroid hormone agents” (Alza Corporation, priority 2004, dated 2016).

What was measured:
Solubility in water = assay type: physicochemical; details: at pH 5
Description: Referring now to FIG. 10, there is shown a superposition of the mole ratios for acetic acid and the neutral form of hPTH (1-34). […] At pH 5, negligible amounts of PTH are present as PTH zero net charge (PTH 0). The PTH is also highly soluble in water at concentrations in excess of 20%. During drying and subsequent storage, the free acetic acid will evaporate inherently resulting in formation of the water insoluble PTH 0. Subsequent reconstitution in water will not allow total solubilization of PTH. Accordingly, the use of a low volatility counterion provides a solid soluble formulation of PTH as long as the pH is maintained at least 2.5 pH units, preferably 3 pH units, below the pI of PTH. Preferably, this can be achieved by providing at least about two low volatility counterions to each molecule of PTH.

urinary cAMP = test: Urinary cAMP excretion after subcutaneous vs transdermal delivery; assay type: in vivo, human
Experimental: (§1) In this example, transdermal delivery of a PTH-based agent using a coated microprojection member was compared to conventional, subcutaneous delivery of teriparatide PTH (Forteo™). A dose-finding study was conducted with […], young females that received two treatments, separated by at least five days, according to randomly assigned sequence of 20 μg subcutaneous delivery of Forteo™ and 30 μg transdermal delivery of a PTH-based agent by coated microprojection. Bioavailability of transdermally delivered PTH was determined in 20 healthy, young females by administering two treatments, separated by at least five day, according to randomly assigned sequence of 40 μg subcutaneous delivery of Forteo™ and 30 μg transdermal delivery of a PTH-based agent by coated microprojection.
FIG. 12 further reflects a preferred pulsatile concentration profile of the PTH agent, i.e., rapid on-set and rapid off-set after reaching Cmax.

[1] = Pharmacokinetics of hPTH (1-34) after IV, SC and coated microprojection array administration; assay type: in vivo, hairless guinea pig; details: for dose absorbed/delivered: AUC relative to IV
[2] = Plasma PTH after subcutaneous Forteo vs coated microprojection transdermal delivery; assay type: in vivo, human
Experimental: as §1
In the dose-finding study, two participants dropped out, eleven subjects participated and eight generated usable data. It was determined that three subjects had measurable PTH plasma levels following subcutaneous injection and eight subjects had measurable PTH plasma levels following transdermal delivery.

## CC[C@H](C)[C@H](NC(=O)[C@H](CCC(=O)O)NC(=O)[C@H](CO)NC(=O)[C@@H](NC(=O)[C@@H](N)CO)C(C)C)C(=O)N[C@@H](CCC(N)=O)C(=O)N[C@@H](CC(C)C)C(=O)N[C@@H](CCSC)C(=O)N[C@@H](Cc1cnc[nH]1)C(=O)N[C@@H](CC(N)=O)C(=O)N[C@@H](CC(C)C)C(=O)NCC(=O)N[C@@H](CCCCN)C(=O)N[C@@H](Cc1cnc[nH]1)C(=O)N[C@@H](CC(C)C)C(=O)N[C@@H](CC(N)=O)C(=O)N[C@@H](CO)C(=O)N[C@@H](CCSC)C(=O)N[C@@H](CCC(=O)O)C(=O)N[C@@H](CCCN=C(N)N)C(=O)N[C@H](C(=O)N[C@@H](CCC(=O)O)C(=O)N[C@@H](Cc1c[nH]c2ccccc12)C(=O)N[C@@H](CC(C)C)C(=O)N[C@@H](CCCN=C(N)N)C(=O)N[C@@H](CCCCN)C(=O)N[C@@H](CCCCN)C(=O)N[C@@H](CC(C)C)C(=O)N[C@@H](CCC(N)=O)C(=O)N[C@@H](CC(=O)O)C(=O)N[C@H](C(=O)N[C@@H](Cc1cnc[nH]1)C(=O)N[C@@H](CC(N)=O)C(=O)N[C@@H](Cc1ccccc1)C(=O)O)C(C)C)C(C)C [hPTH (1-34)]
Solubility in water
  solubility in water (concentration): > 20%
Urinary cAMP
  biological activity as evidenced by urinary cAMP excretion: comparable to that following subcutaneous delivery
[1]; IV, 22.5 μg, hairless guinea pig
  Fraction dose absorbed/delivered (%): 100%
[1]; SC, 19.5 μg
  dose absorbed/delivered: 8.2 ± 2.9 µg
[1]; microprojection array, 40.0 μg
  dose absorbed/delivered: 6.6 ± 1.8 µg
[2]; bioavailability study, subcutaneous delivery (Forteo 40 μg), 20 subjects completed
  subjects with measurable PTH plasma levels: 15 subjects
[2]; bioavailability study, transdermal delivery 30 μg, 20 subjects completed
  subjects with measurable PTH plasma levels: 20 subjects
[2]; dose-finding study, subcutaneous injection (Forteo 20 μg), eight with usable data
  subjects with measurable PTH plasma levels: three
[2]; dose-finding study, transdermal delivery 30 μg, eight with usable data
  subjects with measurable PTH plasma levels: eight
